The values below come from patent publication US20240109917A1 (ACTELION PHARMACEUTICALS LTD, priority 2020, published 2024).

Structures are written as SMILES.

The assay has as its target His6-TEV-PDGFRβ (557-1016) (Homo sapiens (Human), UniProt P09619). Description: PDGFRβ HTRF Assay. The settings on record: read-out: PDGFR HTRF IC50. Type of assay: biochemical. Summed up:
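HTRF KinEASE-TK readout (665/620 nm ratio) of TK-biotin substrate phosphorylation by His-tagged PDGFRβ kinase domain. Enzyme and inhibitor preincubated 30 min, then ATP/substrate added for 3 h at room temperature before 60 min EDTA quench/detection.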

As usually defined, the IC50 is the concentration needed to halve the response being measured.

Sequence of His6-TEV-PDGFRβ (557-1016) (P09619 557-1016): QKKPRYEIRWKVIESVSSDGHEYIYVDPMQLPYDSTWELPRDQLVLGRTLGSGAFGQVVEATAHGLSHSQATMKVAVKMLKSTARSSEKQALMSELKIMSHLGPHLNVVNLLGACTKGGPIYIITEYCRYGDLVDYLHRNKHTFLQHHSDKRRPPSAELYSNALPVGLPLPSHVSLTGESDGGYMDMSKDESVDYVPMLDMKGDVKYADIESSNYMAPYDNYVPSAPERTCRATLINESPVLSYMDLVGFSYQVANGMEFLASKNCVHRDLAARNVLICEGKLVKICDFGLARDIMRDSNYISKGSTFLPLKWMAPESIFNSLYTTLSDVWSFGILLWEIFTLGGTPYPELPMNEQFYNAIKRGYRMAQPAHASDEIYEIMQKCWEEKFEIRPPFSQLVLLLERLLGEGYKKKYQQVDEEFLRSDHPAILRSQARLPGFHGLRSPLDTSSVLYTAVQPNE

As to `Cc1ncc(NC(=O)CN2CCC3(CCOC3)C2)cc1NC(=O)c1cnn2cc(-c3cnn(C)c3)sc12` (centres unmarked) [Example 19, N-(5-(2-(2-oxa-7-azaspiro[4.4]nonan-7-yl)acetamido)-2-methylpyridin-3-yl)-2-(1-methyl-1H-pyrazol-4-yl)pyrazolo[5,1-b]thiazole-7-carboxamide], the IC50 stood at 0.7 nM. The value for `Cc1ncc(NC(=O)CN2CCCC23COC3)cc1NC(=O)c1cnn2cc(-c3cnn(C)c3)sc12` [Example 20, N-(5-(2-(2-oxa-5-azaspiro[3.4]octan-5-yl)acetamido)-2-methyl-pyridin-3-yl)-2-(1-methyl-1H-pyrazol-4-yl)pyrazolo[5,1-b]thiazole-7-carboxamide] was 0.7 nM; that for `Cc1ncc(NC(=O)CN2CCC3(CCCO3)C2)cc1NC(=O)c1cnn2cc(-c3cnn(C)c3)sc12` (centres unmarked) [Example 21, N-(5-(2-(1-oxa-7-azaspiro[4.4]nonan-7-yl)acetamido)-2-methylpyridin-3-yl)-2-(1-methyl-1H-pyrazol-4-yl)pyrazolo[5,1-b]thiazole-7-carboxamide] was 0.7 nM.

As to `Cc1ncc(NC(=O)CN2CC(C)(C)C2)cc1NC(=O)c1cnn2cc(-c3cnn(C)c3)sc12` [Example 22, N-(5-(2-(3,3-dimethylazetidin-1-yl)acetamido)-2-methylpyridin-3-yl)-2-(1-methyl-1H-pyrazol-4-yl)pyrazolo[5,1-b]thiazole-7-carboxamide], the IC50 was found to be 0.7 nM. With `Cc1ncc(NC(=O)CN2CCc3ccncc3C2)cc1NC(=O)c1cnn2cc(-c3cnn(C)c3)sc12` [Example 23, N-(5-(2-(3,4-dihydro-2,7-naphthyridin-2 (1H)-yl)acetamido)-2-methylpyridin-3-yl)-2-(1-methyl-1H-pyrazol-4-yl)pyrazolo[5,1-b]thiazole-7-carboxamide] the figure was 0.7 nM; with `Cc1ncc(NC(=O)CN2CCCC3(COC3)C2)cc1NC(=O)c1cnn2cc(-c3cnn(C)c3)sc12` [Example 24, N-(5-(2-(2-oxa-6-azaspiro[3.5]nonan-6-yl)acetamido)-2-methylpyridin-3-yl)-2-(1-methyl-1H-pyrazol-4-yl)pyrazolo[5,1-b]thiazole-7-carboxamide], 0.7 nM; with `Cc1ncc(NC(=O)CN2CCCCC23COC3)cc1NC(=O)c1cnn2cc(-c3cnn(C)c3)sc12` [Example 25, N-(5-(2-(2-oxa-5-azaspiro[3.5]nonan-5-yl)acetamido)-2-methylpyridin-3-yl)-2-(1-methyl-1H-pyrazol-4-yl)pyrazolo[5,1-b]thiazole-7-carboxamide], 0.7 nM. As for `COc1ncccc1-c1cn2ncc(C(=O)Nc3cc(NC(=O)OCCN4CCCC4(C)C)cnc3C)c2s1` [Example 254, 2-(2,2-dimethylpyrrolidin-1-yl)ethyl (5-(2-(2-methoxypyridin-3-yl)pyrazolo[5,1-b]thiazole-7-carboxamido)-6-methylpyridin-3-yl)carbamate], the IC50 is 0.2 nM. Turning to `COc1ncccc1-c1cn2ncc(C(=O)Nc3cc(NC(=O)OCC(C)N4CCCC4)cnc3C)c2s1` (centres unmarked) [Example 255, 2-(pyrrolidin-1-yl)propyl (5-(2-(2-methoxypyridin-3-yl)pyrazolo[5,1-b]thiazole-7-carboxamido)-6-methylpyridin-3-yl)carbamate], the IC50 came to 0.2 nM. For the compound `Cc1ncc(NC(=O)OC[C@@H]2CCCN2C)cc1NC(=O)c1cnn2cc(-c3cccnc3O)sc12` [Example 256, (S)-(1-methylpyrrolidin-2-yl)methyl (5-(2-(2-hydroxypyridin-3-yl)pyrazolo[5,1-b]thiazole-7-carboxamido)-6-methylpyridin-3-yl)carbamate], the IC50 came to 0.6 nM.

Consider `Cc1ncc(NC(=O)OC[C@@H]2CCCN2C)cc1NC(=O)c1cnn2cc(-c3cccc4c3cnn4C)sc12` [Example 257, (S)-(1-methylpyrrolidin-2-yl)methyl (6-methyl-5-(2-(1-methyl-1H-indazol-4-yl)pyrazolo[5,1-b]thiazole-7-carboxamido)pyridin-3-yl)carbamate], for which the IC50 is 0.2 nM. With `Cc1ncc(NC(=O)OC[C@@H]2CCCN2C)cc1NC(=O)c1cnn2cc(-c3cc[nH]c3)sc12` [Example 258, (S)-(1-methylpyrrolidin-2-yl)methyl (5-(2-(1H-pyrrol-3-yl)pyrazolo[5,1-b]thiazole-7-carboxamido)-6-methylpyridin-3-yl)carbamate], the IC50 came to 0.4 nM. With `Cc1ncc(NC(=O)CN2CCCC2(C)C)cc1NC(=O)c1cnn2cc(-n3ncc4cccnc43)sc12` [Example 259, N-(5-(2-(2,2-dimethylpyrrolidin-1-yl)acetamido)-2-methylpyridin-3-yl)-2-(1H-pyrazolo[3,4-b]pyridin-1-yl)pyrazolo[5,1-b]thiazole-7-carboxamide] the figure was 0.4 nM; with `Cc1ncc(NC(=O)CCN2CCCC2(C)C)cc1NC(=O)c1cnn2cc(-n3ncc4cccnc43)sc12` [Example 260, N-(5-(3-(2,2-dimethylpyrrolidin-1-yl)propanamido)-2-methylpyridin-3-yl)-2-(1H-pyrazolo[3,4-b]pyridin-1-yl)pyrazolo[5,1-b]thiazole-7-carboxamide], 0.3 nM. In the case of `COCCn1cc(-c2cn3ncc(C(=O)Nc4cc(NC(=O)CN5CC(C)(C)C5)cnc4C)c3s2)cn1` [Example 261, N-(5-(2-(3,3-dimethylazetidin-1-yl)acetamido)-2-methylpyridin-3-yl)-2-(1-(2-methoxyethyl)-1H-pyrazol-4-yl)pyrazolo[5,1-b]thiazole-7-carboxamide], the IC50 came out at 0.4 nM. As to `Cc1ncc(NC(=O)CN2CC(C)(C)C2)cc1NC(=O)c1cnn2cc(-c3cnn(C4CS(=O)(=O)C4)c3)sc12` [Example 262, N-(5-(2-(3,3-dimethylazetidin-1-yl)acetamido)-2-methylpyridin-3-yl)-2-(1-(1,1-dioxidothietan-3-yl)-1H-pyrazol-4-yl)pyrazolo[5,1-b]thiazole-7-carboxamide], the 50% inhibitory concentration (IC50) worked out at 0.5 nM.

On to `Cc1ncc(NC(=O)CN2CC(C)(C)C2)cc1NC(=O)c1cnn2cc(-c3cnn(CC4COC4)c3)sc12` [Example 263, N-(5-(2-(3,3-dimethylazetidin-1-yl)acetamido)-2-methylpyridin-3-yl)-2-(1-(oxetan-3-ylmethyl)-1H-pyrazol-4-yl)pyrazolo[5,1-b]thiazole-7-carboxamide], for which the IC50 turned out to be 0.6 nM. `Cc1ncc(NC(=O)CN2CC(C)(C)C2)cc1NC(=O)c1cnn2cc(-c3cnn(C4COC4)c3)sc12` [Example 264, N-(5-(2-(3,3-dimethylazetidin-1-yl)acetamido)-2-methylpyridin-3-yl)-2-(1-(oxetan-3-yl)-1H-pyrazol-4-yl)pyrazolo[5,1-b]thiazole-7-carboxamide]: the IC50 is 0.4 nM.

In the case of `Cc1ncc(NC(=O)CN2CC(C)(C)C2)cc1NC(=O)c1cnn2cc(-c3cnn(CS(C)(=O)=O)c3)sc12` [Example 265, N-(5-(2-(3,3-dimethylazetidin-1-yl)acetamido)-2-methylpyridin-3-yl)-2-(1-((methylsulfonyl)methyl)-1H-pyrazol-4-yl)pyrazolo[5,1-b]thiazole-7-carboxamide], the IC50 turned out to be 0.5 nM.

With `Cc1ncc(NC(=O)CN2CC(C)(C)C2)cc1NC(=O)c1cnn2cc(-c3cnn(CC#N)c3)sc12` [Example 266, 2-(1-(cyanomethyl)-1H-pyrazol-4-yl)-N-(5-(2-(3,3-dimethylazetidin-1-yl)acetamido)-2-methylpyridin-3-yl)pyrazolo[5,1-b]thiazole-7-carboxamide], the 50% inhibitory concentration (IC50) stood at 0.7 nM. The value for `Cc1ncc(NC(=O)CN2CC(C)(C)C2)cc1NC(=O)c1cnn2cc(-c3cnn(CC(N)=O)c3)sc12` [Example 267, 2-(1-(2-amino-2-oxoethyl)-1H-pyrazol-4-yl)-N-(5-(2-(3,3-dimethylazetidin-1-yl)acetamido)-2-methylpyridin-3-yl)pyrazolo[5,1-b]thiazole-7-carboxamide] was 0.9 nM; that for `Cc1ncc(NC(=O)CN2CC(C)(C)C2)cc1NC(=O)c1cnn2cc(-c3cnn(CC(F)(F)F)c3)sc12` [Example 268, N-(5-(2-(3,3-dimethylazetidin-1-yl)acetamido)-2-methylpyridin-3-yl)-2-(1-(2,2,2-trifluoroethyl)-1H-pyrazol-4-yl)pyrazolo[5,1-b]thiazole-7-carboxamide] was 0.6 nM. As for `Cc1ncc(NC(=O)CN2CC(C)(C)C2)cc1NC(=O)c1cnn2cc(-c3cnn(C(F)(F)F)c3)sc12` [Example 269, N-(5-(2-(3,3-dimethylazetidin-1-yl)acetamido)-2-methylpyridin-3-yl)-2-(1-(trifluoromethyl)-1H-pyrazol-4-yl)pyrazolo[5,1-b]thiazole-7-carboxamide], the IC50 came to 1.8 nM.

On to `Cc1ncc(NC(=O)CN2CC(C)(C)C2)cc1NC(=O)c1cnn2cc(-c3cnn(CC4CC4)c3)sc12` [Example 270, 2-(1-(cyclopropylmethyl)-1H-pyrazol-4-yl)-N-(5-(2-(3,3-dimethylazetidin-1-yl)acetamido)-2-methylpyridin-3-yl)pyrazolo[5,1-b]thiazole-7-carboxamide], for which the IC50 stood at 0.4 nM. Consider `Cc1ncc(NC(=O)CN2CC(C)(C)C2)cc1NC(=O)c1cnn2cc(-c3cn[nH]c3)sc12` [Example 271, N-(5-(2-(3,3-dimethylazetidin-1-yl)acetamido)-2-methylpyridin-3-yl)-2-(1H-pyrazol-4-yl)pyrazolo[5,1-b]thiazole-7-carboxamide], for which the IC50 came to 0.2 nM. With `Cc1ncc(NC(=O)CN2CC(C)(C)C2)cc1NC(=O)c1cnn2cc(-c3ccc(C4(O)COC4)cc3)sc12` [Example 272, N-(5-(2-(3,3-dimethylazetidin-1-yl)acetamido)-2-methylpyridin-3-yl)-2-(4-(3-hydroxyoxetan-3-yl)phenyl)pyrazolo[5,1-b]thiazole-7-carboxamide] the figure was 0.2 nM.
